{"source": "the NIST ThermoML archive (doi:10.1021/je900283v)", "key": {"[1]": {"test": "Molar enthalpy of transition or fusion", "conditions": "Crystal; DSC"}, "[2]": {"conditions": "Crystal; DTA"}}, "note": "± gives the expanded uncertainty stated by the source.", "data": [{"smiles": "CC[C@@]1(O)C(=O)OCc2c1cc1n(c2=O)Cc2cc3cc(O)ccc3nc2-1", "values": [{"measurement": "Molar enthalpy of transition or fusion", "setting": "[1]", "value": "12.8 ± 0.335", "unit": "kcal/mol"}, {"measurement": "Normal melting temperature", "setting": "[2]", "value": "194.00 ± 1", "unit": "°C"}]}]}
